Activity calls are given as the source filed them. The calls are words filed in the database; no cut-off is given here.
Experiments:
MDA-MB-231 [1] = experiment: Induction of cell cycle arrest in human MDA-MB-231 cells assessed as accumulation of cells at G1 phase at 1 uM measured after 24 hrs by flow cytometry (reference value: 47.7%); assay type: functional
MDA-MB-231 [2] = experiment: Induction of apoptosis in human MDA-MB-231 cells assessed as late apoptotic cells at 2 uM measured after 24 hrs by Annexin V/Propidium iodide stain based Flow cytometry (reference value: 2.78%); assay type: functional
MDA-MB-468 [3] = experiment: Effect on Akt expression in human MDA-MB-468 cells measured at 1 to 5 uM after 24 hrs by Western blot analysis; assay type: functional, cell-based; settings: dose 1-5 µM
MDA-MB-468 [4] = experiment: Anticancer activity in human MDA-MB-468 cells xenografted mouse model assessed as tumor growth inhibition at 10 mg/kg, ip treated for 33 days relative to control; assay type: functional, organism-based; settings: time 33.0 day
[5] = biological target: RAC-alpha serine/threonine-protein kinase (Homo sapiens) (UniProt P31749); experiment: Binding affinity to Akt1 in human MDA-MB-231 cells assessed as shifted melting curve at 2 uM by CETSA assay; assay type: cell-based
Sequence of RAC-alpha serine/threonine-protein kinase (Homo sapiens) (P31749 whole entry): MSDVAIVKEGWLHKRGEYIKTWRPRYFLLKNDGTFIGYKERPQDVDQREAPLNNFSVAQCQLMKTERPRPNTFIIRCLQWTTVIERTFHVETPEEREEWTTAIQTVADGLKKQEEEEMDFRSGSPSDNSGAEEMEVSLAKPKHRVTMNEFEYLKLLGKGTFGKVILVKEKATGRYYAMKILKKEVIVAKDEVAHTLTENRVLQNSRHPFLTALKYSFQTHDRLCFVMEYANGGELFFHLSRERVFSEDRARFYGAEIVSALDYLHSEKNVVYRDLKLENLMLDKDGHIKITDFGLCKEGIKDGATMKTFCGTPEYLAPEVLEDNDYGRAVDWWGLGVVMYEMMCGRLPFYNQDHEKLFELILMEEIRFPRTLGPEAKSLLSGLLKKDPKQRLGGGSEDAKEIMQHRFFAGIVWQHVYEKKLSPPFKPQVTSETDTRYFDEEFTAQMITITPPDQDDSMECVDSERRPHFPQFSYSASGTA

MDA-MB-231 [6] = experiment: Induction of mitochondrial depolarization in human MDA-MB-231 cells assessed as monomers at 2 uM in dark by JC10 staining based fluorescence microscopy (reference value: 5.6%); assay type: functional
[7] = Toxicity in NOD/SCID mouse assessed as cytotoxicity in lung at 10 mg/kg, ip treated for 33 days by H&E staining analysis; assay type: organism-based; settings: in vivo, 792 h, time 33 day
MDA-MB-468 [8] = experiment: Induction of mitochondrial depolarization in human MDA-MB-468 cells assessed as monomers at 1 uM in dark by JC10 staining based fluorescence microscopy (reference value: 8.4%); assay type: functional
MDA-MB-231 [9] = experiment: Induction of mitochondrial depolarization in human MDA-MB-231 cells assessed as monomers at 5 uM in dark by JC10 staining based fluorescence microscopy (reference value: 5.6%); assay type: functional
MDA-MB-468 [10] = experiment: Induction of cell cycle arrest in human MDA-MB-468 cells assessed as accumulation of cells at G1 phase at 1 uM measured after 24 hrs by flow cytometry (reference value: 26.6%); assay type: functional
MDA-MB-231 [11] = experiment: Antiproliferative activity against human MDA-MB-231 cells assessed as supression of long term proliferative capacity measured after 2 weeks by Colony formation assay; assay type: functional, cell-based; settings: dose 0.05-0.2 µM
MDA-MB-468 [12] = experiment: Anticancer activity in human MDA-MB-468 cells xenografted mouse model assessed as reduction in tumor volume at 10 mg/kg, ip treated for 33 days; assay type: functional; settings: MDA-MB-468, ip, 792 h, time 33 day
MDA-MB-468 [13] = experiment: Antitumor activity against human MDA-MB-468 cells xenografted in NOD/SCID mouse assessed as decrease in Ki67 expression in tumor tissue at 5 to 10 mg/kg, ip treated for 33 days by immunohistochemical analysis; assay type: functional, organism-based; settings: dose 5-10 mg/kg, time 33.0 day
MDA-MB-468 [14] = experiment: Induction of apoptosis in human MDA-MB-468 cells assessed as early apoptotic cells at 1 uM measured after 24 hrs by Annexin V/Propidium iodide stain based Flow cytometry (reference value: 7.98%); assay type: functional
MDA-MB-468 [15] = experiment: Induction of apoptosis in human MDA-MB-468 cells assessed as late apoptotic cells at 1 uM measured after 24 hrs by Annexin V/Propidium iodide stain based Flow cytometry (reference value: 3.98%); assay type: functional
MDA-MB-468 [16] = experiment: Antitumor activity against human MDA-MB-468 cells xenografted in NOD/SCID mouse assessed as decrease in CD31 expression in tumor tissue at 5 to 10 mg/kg, ip treated for 33 days by immunohistochemical analysis; assay type: functional, organism-based; settings: dose 5-10 mg/kg, time 33.0 day
MDA-MB-231 [17] = experiment: Induction of apoptosis in human MDA-MB-231 cells assessed as increase in cleaved caspase 3 at 1 to 5 uM measured after 24 hrs by Western blot analysis; assay type: functional, cell-based; settings: dose 1-5 µM
L02 = experiment: Cytotoxicity against human L02 cells assessed as reduction in cell viability incubated for 96 hrs by MTT method; assay type: cell-based; settings: L02, 96 h
[18] = Selectivity index, ratio of IC50 for HEK293 cells to IC50 for human MBA-MB-231 cells; assay type: toxicity; settings: HEK293 cells versus MBA-MB-231 cells, read-out: Selectivity Index
MDA-MB-231 [19] = experiment: Antiinvasive activity against in human MDA-MB-231 cells assessed as reduction in beta-catenin expression measured upto 72 hrs by Western blot analysis; assay type: functional, cell-based; settings: dose 0.1-0.2 µM, time hrs <=72
MDA-MB-231 [20] = experiment: Induction of mitochondrial depolarization in human MDA-MB-231 cells assessed as monomers at 1 uM in dark by JC10 staining based fluorescence microscopy (reference value: 5.6%); assay type: functional
MDA-MB-231 [21] = experiment: Effect on Akt expression in human MDA-MB-231 cells measured at 1 to 5 uM after 24 hrs by Western blot analysis; assay type: functional, cell-based; settings: dose 1-5 µM
MDA-MB-468 [22] = experiment: Induction of autophagy in human MDA-MB-468 cells assessed as increase in ATG5 expression at 1 to 5 uM incubated for 24 hrs by Western blot analysis; assay type: functional, cell-based; settings: dose 1-5 µM
MDA-MB-231 [23] = experiment: Induction of autophagy in human MDA-MB-231 cells assessed as elimination of p62 at 1 to 5 uM incubated for 24 hrs by Western blot analysis; assay type: functional, cell-based; settings: dose 1-5 µM
MDA-MB-231 [24] = experiment: Inhibition of PI3K phosphorylation in human MDA-MB-231 cells measured at 1 to 5 uM after 24 hrs by Western blot analysis; assay type: cell-based; settings: dose 1-5 µM
MDA-MB-231 [25] = experiment: Cytotoxicity against human MDA-MB-231 cells assessed as reduction in cell viability incubated for 96 hrs by MTT method; assay type: functional, cell-based; settings: MDA-MB-231, 96 h
MDA-MB-468 [26] = experiment: Induction of autophagy in human MDA-MB-468 cells assessed as increase in ATG7 expression at 1 to 5 uM incubated for 24 hrs by Western blot analysis; assay type: functional, cell-based; settings: dose 1-5 µM
MDA-MB-468 [27] = experiment: Induction of apoptosis in human MDA-MB-468 cells assessed as increase in cleaved PARP at 1 to 5 uM measured after 24 hrs by Western blot analysis; assay type: functional, cell-based; settings: dose 1-5 µM
MDA-MB-231 [28] = experiment: Antiinvasive activity against in human MDA-MB-231 cells assessed as reduction in MMP2 expression measured upto 72 hrs by Western blot analysis; assay type: functional, cell-based; settings: dose 0.1-0.2 µM, time hrs <=72
MDA-MB-468 [29] = experiment: Inhibition of PI3K phosphorylation in human MDA-MB-468 cells measured at 1 to 5 uM after 24 hrs by Western blot analysis; assay type: cell-based; settings: dose 1-5 µM
MDA-MB-231 [30] = experiment: Antiinvasive activity against in human MDA-MB-231 cells measured at 0.2 uM upto 72 hrs by transwell invasion assay relative to control; assay type: functional; settings: MDA-MB-231, 72 h, time hrs <=72
MDA-MB-231 [31] = experiment: Induction of apoptosis in human MDA-MB-231 cells assessed as early apoptotic cells at 5 uM measured after 24 hrs by Annexin V/Propidium iodide stain based Flow cytometry (reference value: 3.34%); assay type: functional
MDA-MB-231 [32] = experiment: Antitumor activity against human MDA-MB-231 cells xenografted in NOD/SCID mouse assessed as decrease in Ki67 expression in tumor tissue at 5 to 10 mg/kg, ip treated for 33 days by immunohistochemical analysis; assay type: functional, organism-based; settings: dose 5-10 mg/kg, time 33.0 day
MDA-MB-468 [33] = experiment: Induction of apoptosis in human MDA-MB-468 cells assessed as early apoptotic cells at 5 uM measured after 24 hrs by Annexin V/Propidium iodide stain based Flow cytometry (reference value: 7.98%); assay type: functional
[34] = Toxicity in NOD/SCID mouse assessed as cytotoxicity in liver at 10 mg/kg, ip treated for 33 days by H&E staining analysis; assay type: organism-based; settings: in vivo, 792 h, time 33 day

Activity [5]: Active
Structure (SMILES): C=C1C(=O)C2=C[C@H]1CCC(=O)[C@]1(C)[C@H](O)CCC(C)(C)[C@H]1C[C@H]2O
Activity (MDA-MB-231 [1]): 33.7% | Activity (MDA-MB-231 [2]): 13.6% | Activity (MDA-MB-468 [3]): inactive | Activity (MDA-MB-468 [4]): Active | Activity (MDA-MB-231 [6]): 43.1% | Activity [7]: Non-Toxic | Activity (MDA-MB-468 [8]): 38.4% | Activity (MDA-MB-231 [9]): 76.2% | Activity (MDA-MB-468 [10]): 14.3% | Activity (MDA-MB-231 [11]): Active | inhibition in vivo at 10 mg/kg (MDA-MB-468 [12]): 44.8% | Activity (MDA-MB-468 [13]): Active | Activity (MDA-MB-468 [14]): 29.7% | Activity (MDA-MB-468 [15]): 10.1% | Activity (MDA-MB-468 [16]): Active | Activity (MDA-MB-231 [17]): Active | IC50 (L02): > 5000 nM | selectivity ratio [18]: 26.2 | Activity (MDA-MB-231 [19]): Active | Activity (MDA-MB-231 [20]): 18.9% | Activity (MDA-MB-231 [21]): inactive | Activity (MDA-MB-468 [22]): Active | Activity (MDA-MB-231 [23]): Active | inhibition (MDA-MB-231 [24]): inactive | IC50 (MDA-MB-231 [25]): 78.3 nM | Activity (MDA-MB-468 [26]): Active | Activity (MDA-MB-468 [27]): Active | Activity (MDA-MB-231 [28]): Active | inhibition (MDA-MB-468 [29]): inactive | inhibition at 0.2 µM (MDA-MB-231 [30]): 80% | Activity (MDA-MB-231 [31]): 18% | Activity (MDA-MB-231 [32]): Active | Activity (MDA-MB-468 [33]): 21% | Activity [34]: Non-Toxic

— ChEMBL document CHEMBL5036330, “Discovery of 8,9-seco-ent-Kaurane Diterpenoids as Potential Leads for the Treatment of Triple-Negative Breast Cancer” (J Med Chem, 2021)
